Laboratory results reported in paper PMC12080345 (Journal of medicinal chemistry, 2023).

Assay: Acute toxicity assay in mice
Format: in vivo
Settings: 200 mg/kg

Compound: COc1cc(Cn2ccc3cc(C(=O)NCC45C[C@H]6C[C@@H](C4)C[C@@H](C5)C6)ccc32)ccc1C(=O)NO [4e, N-(((3r,5r,7r)-Adamantan-1-yl)methyl)-1-(4-(hydroxycarbamoyl)-3-methoxybenzyl)-1H-indole-5-carboxamide]
- adverse effect: no observed adverse effect
